Consider 2 molecules from patent US20180015100A1, “COMBINATION PRODUCTS FOR THE TREATMENT OF BACTERIAL INFECTIONS AND METHODS OF PRODUCING OR DOSING OF SAME” (priority 2016, published 2018).

SMILES strings stand for the structures.

For data set [1] the following is noted: plasma; cited from earlier work.
The conditions of data set [2]: in vivo, cited from earlier work.
Data set [3] deals with 13 Enterobacteriaceae isolates. In kind it is cell-based. To be noted: with clavulanate 2:1.
The test system of data set [4] is Klebsiella oxytoca isolates. Nature of the data set: MIC of cephalosporins alone or with clavulanate/tazobactam. Type of data set: cell-based. The conditions noted are these: clavulanate 2:1, tazobactam 4 μg/mL.
The subject of data set [5] is Escherichia coli isolates. The description is as above. Type of data set: cell-based. To be noted: clavulanate 2:1, tazobactam 4 μg/mL.
For data set [6], the system named is ESBL-producing Enterobacteriaceae isolates (panel of nineteen). Put plainly: MIC of cephalosporins alone or with clavulanate/tazobactam, whole panel. Type of data set: cell-based. To be noted: cephalosporin alone; 19 isolates.
Data set [7] deals with Klebsiella pneumoniae isolates. Put plainly: MIC of cephalosporins alone or with clavulanate/tazobactam. Type of data set: cell-based. The conditions noted are these: clavulanate 2:1, tazobactam 4 μg/mL.
In data set [8] the test system is Enterobacter aerogenes isolates. The data set is described as above. Type of data set: cell-based. To be noted: Klebsiella aerogenes, clavulanate 2:1, tazobactam 4 μg/mL.
Data set [9] deals with 385 Escherichia coli and 126 Klebsiella pneumoniae isolates. Nature of the data set: MIC, MIC50 and MIC90 by reference broth microdilution against 511 UTI/bloodstream isolates (USA and Europe 2014-2015). Type of data set: cell-based. To be noted: 511 isolates. (Broth dilution looks for growth in wells or tubes with falling amounts of substance.)
The test system of data set [10] is Enterobacter cloacae isolates. Put plainly: MIC of cephalosporins alone or with clavulanate/tazobactam. Type of data set: cell-based. The conditions noted are these: clavulanate 2:1, tazobactam 4 μg/mL.
For data set [11], the system named is Citrobacter freundii isolates. The data set is described as above. In kind it is cell-based. To be noted: clavulanate 2:1, tazobactam 4 μg/mL.

The bioavailability is the share of a dose that reaches the circulation, judged against a reference dose that is usually intravenous. Take `CO/N=C(\C(=O)N[C@@H]1C(=O)N2C(C(=O)O)=C(/C=C\c3scnc3C)CS[C@H]12)c1csc(N)n1` [Cefditoren, cefditoren]: the “Protein binding (% bound)” value in data set [1] is 88 (plasma) % bound. Further, in data set [2] (200 mg), the “Mean Cmax” value is 1.8 µg/mL and the “Mean fCmax” value was 0.22 µg/mL. The bioavailability in data set [2] (po) is 14%. Also, in data set [2], the “Mean unbound plasma concentration following one elimination half-life” value is 0.11 µg/mL and the “peak free drug concentrations” value was not above 0.3 µg/mL. Moreover, the “MICs range against ESBL+ isolates (Table 3)” value in [3] was 0.12 to 2 µg/mL.
By MIC is commonly meant the lowest concentration found to suppress growth. The MIC50 is the lowest concentration that inhibits either 50% of growth or 50% of the strains tested, depending on the study. Low values mean greater potency, high ones weaker potency. Broadly, the MIC90 is the lowest concentration that inhibits either 90% of growth or 90% of the strains tested, depending on the study. For the molecule `CO/N=C(\C(=O)N[C@@H]1C(=O)N2C(C(=O)[O-])=C(C[N+]3(C)CCCC3)CS[C@H]12)c1csc(N)n1` [Cefepime, cefepime], the MIC in data set [4] (AKOX1005 (SHV-2, TEM-1, DHA-1)) is 0.25 µg/mL; in data set [4] (AKOX1009 (CTX-M-15)), 32 µg/mL; in [5] (AECO001 (no ESBL)), not above 0.031 µg/mL; in [5] (AECO1078 (CTX-M-15)) it was more than 32 µg/mL; in data set [5] (AECO1147 (CTX-M-15)) it was 4 µg/mL; in [5] (AECO1157 (CTX-M-15, TEM-OSBL)) it was 32 µg/mL. Also, the MIC in data set [5] (AECO1159 (CTX-M-15)) is more than 32 µg/mL; in data set [5] (AECO1169 (CTX-M-1, TEM-OSBL)), more than 32 µg/mL; in data set [5] (AECO1172 (CTX-M-14)), more than 32 µg/mL; in [7] (AKPN1159 (SHV-12)), 2 µg/mL; in [7] (AKPN1161 (SHV-7)), 1 µg/mL; in data set [7] (AKPN1162 (CTX-M-15, SHV-12)) it was more than 32 µg/mL. Moreover, the MIC in data set [7] (AKPN1166 (CTX-M-14, SHV-12)) is 4 µg/mL; in data set [7] (AKPN1167 (SHV-2)) it was 8 µg/mL; in [8] (AEAE1027 (CTX-M-14)) it was 8 µg/mL; in [8] (AEAE1029 (CTX-M-15)), more than 32 µg/mL; in [10] (AECL1065 (CTX-M-15)), more than 32 µg/mL; in data set [10] (AECL1067 (CTX-M-3)) it was more than 32 µg/mL. The MIC is more than 32 µg/mL in data set [11] (ACFR1034 (CTX-M-15, TEM-OSBL)) and more than 32 µg/mL in data set [11] (ACFR1035 (CTX-M-3, TEM-OSBL)). Further, in data set [6], the “ESBL-producing isolates with MIC<8 μg/mL” value is given as 4 of 19. The same molecule gave an MIC50 in [9] of more than 16 µg/mL. The “EUCAST % I” value in data set [9] (EUCAST 2016 criteria) worked out at 10.0%. For the same molecule, the MIC90 in data set [9] (read-out: MIC90) was more than 16 µg/mL.
